Reference: patent US4618627A, “Catechol derivatives and pharmaceutical compositions thereof for inhibiting anaphylaxis (SRS-A)” (priority 1983, dated 1986)
pIC50: −log10 of the molar value.

Experiments:
[1] = test system: antigen-induced histamine release; assay: Passive peritoneal anaphylaxis (PPA) in rats: histamine release; format: in vivo, male Wistar rats; details: 100 μg/kg i.p.; for inhibition at 0.1 mg/kg: Rattus norvegicus, ip, 30 sec before antigen, histamine, DSCG value is mean of 3 rats (footnote 1)
Protocol: (A) Passive peritoneal anaphylaxis (PPA) in rats The method was based on that of Orange et al^(1). […] After 4 hr, 5 ml of Tyrode solution containing 250 μg heparin and 2 mg DNP-BSA was injected i.p. Test drugs (100 μg/kg) were dissolved in 0.6 ml of saline and injected i.p. 30 sec before antigen administration. Five min. later, the rats were decapitated and the peritoneal fluid was collected by opening the peritoneal cavity into polycarbonate tubes in ice. The supernatant was separated for bioassay from the cellular residue by centrifugation at 2000 rpm for 5 min at 4° C. […] One unit of SRS-A refers to the concentration required to produce a contraction of the guinea-pig ileum equal in amplitude to that produced by 5 ng histamine base in that assay.

[2] = test system: antigen-induced SRS-A release; assay: Passive peritoneal anaphylaxis (PPA) in rats: SRS-A release; format: in vivo, male Wistar rats; details: Rattus norvegicus, ip, 100 μg/kg i.p., 30 sec before antigen, DSCG value is mean of 3 rats (footnote 1)
Protocol: (A) Passive peritoneal anaphylaxis (PPA) in rats
The method was based on that of Orange et al^(1). Briefly, male Wistar rats weighing 275 to 325 g (Shizuoka Exp. Animal Agric, Coop. Assoc.) were sensitized by intraperitoneally (i.p.) injecting 5 ml of diluted (40-fold) mouse anti-DNP reaginic serum (PCA titer: 1280). After 4 hr, 5 ml of Tyrode solution containing 250 μg heparin and 2 mg DNP-BSA was injected i.p. Test drugs (100 μg/kg) were dissolved in 0.6 ml of saline and injected i.p. 30 sec before antigen administration. Five min. later, the rats were decapitated and the peritoneal fluid was collected by opening the peritoneal cavity into polycarbonate tubes in ice. The supernatant was separated for bioassay from the cellular residue by centrifugation at 2000 rpm for 5 min at 4° C.
Histamine and SRS-A were assayed using isolated guinea-pig ileum in the presence of 10^-7 M FPL-55712 and 10^-6 M mepyramine, respectively, in addition to 5×10^-7 M atropine. One unit of SRS-A refers to the concentration required to produce a contraction of the guinea-pig ileum equal in amplitude to that produced by 5 ng histamine base in that assay.

[3] = target: T1, 5-lipoxygenase (Mus musculus, UniProt P48999); assay: Assay of 5-lipoxygenase; format: biochemical; details: enzyme fraction from mastocytoma P-815 cells, [1-14C]-arachidonic acid, 37° C., 5 min; Probit method; read-out: IC 50 5-Lipoxygenase
T1 construct: endogenous in cells
T1 sequence (P48999 1-674): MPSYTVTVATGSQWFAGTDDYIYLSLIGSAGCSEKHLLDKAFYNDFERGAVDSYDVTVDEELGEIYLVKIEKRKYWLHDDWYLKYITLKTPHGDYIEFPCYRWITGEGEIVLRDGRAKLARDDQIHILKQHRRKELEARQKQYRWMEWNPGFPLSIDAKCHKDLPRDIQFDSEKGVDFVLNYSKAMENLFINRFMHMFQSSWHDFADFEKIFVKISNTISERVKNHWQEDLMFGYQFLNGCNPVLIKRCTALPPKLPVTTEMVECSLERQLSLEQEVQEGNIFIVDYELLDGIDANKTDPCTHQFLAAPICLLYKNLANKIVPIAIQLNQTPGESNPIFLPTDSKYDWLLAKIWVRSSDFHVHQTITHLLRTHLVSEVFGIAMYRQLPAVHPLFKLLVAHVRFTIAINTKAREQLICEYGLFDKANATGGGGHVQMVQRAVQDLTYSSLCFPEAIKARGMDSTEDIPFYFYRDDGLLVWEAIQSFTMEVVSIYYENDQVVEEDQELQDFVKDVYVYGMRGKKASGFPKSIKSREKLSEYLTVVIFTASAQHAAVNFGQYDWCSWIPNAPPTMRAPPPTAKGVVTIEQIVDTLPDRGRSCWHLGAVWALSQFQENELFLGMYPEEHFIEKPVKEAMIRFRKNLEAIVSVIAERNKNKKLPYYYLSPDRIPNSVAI
Protocol: (§1) (B) Assay of 5-lipoxygenase and cyclooygenase
(§2) The method was based on that of Koshihara et al^(1). In the case of assay of 5-lipoxygenase activity, an enzyme fraction from mastocytoma P-815 cells (10^7 cells/ml) was incubated with 0.2 μCi [1-^14 C]-arachidonic acid (56.9 Ci/mol), 0.8 mM CaCl2, 2×10^-5 M indoemthacin and various concentrations of test drugs at 37° C. for 5 min. In the case of assay of cyclooxygenase activity, CaCl2 and indomethacin were omitted from the above incubation mixture and incubation was performed at 37° C. for 7 min. Both reactions were terminated by adjusting the pH of the mixture to 3.0 with HCl. After extraction of the products with 8 volume ethyl acetate, each extract was concentrated and applied to TLC plate. For the separation of HETEs and prostaglandins, thin-layer chromatography was carried out using the solvent system: petroleum ether/diethyl ether/acetic acid (50:50:1) and ethyl acetate/2,2,4-trimethylpentane/acetic acid/water (11:5:2:10, upper phase), respectively. Radioactive spots were detected by autoradiography and scraped off and counted using a liquid scintillation spectrometer. The activities of 5-lipoxygenase and cyclooxygenase were expressed as the sum of radioactivities due to 5-HETE and 5,12-diHETE and due to PGD2, PGE2 and PGF2α, respectively. The IC 50 values were calculated by Probit method.

[4] = target: cyclooxygenase; assay: Assay of cyclooxygenase; format: biochemical; details: enzyme fraction from mastocytoma P-815 cells, [1-14C]-arachidonic acid, 37° C., 7 min, Probit method; for pIC50: read-out: IC 50 Cyclooxygenase
Protocol: as §1, §2

pIC50 [3] | IC 50 Cyclooxygenase [4] | pIC50 [4] | SMILES | inhibition at 0.1 mg/kg [1] | inhibition at 0.1 mg/kg [2] | inhibition of histamine release (selectivity versus SRS-A) ([1]; rat PPA)
– | – | – | CCCCCCC(O)CCc1ccc(O)c(O)c1 (centres unmarked) [Example 2, 1-(3,4-dihydroxyphenyl)-3-nonanol] | 5.2% | 57.3% | –
– | – | – | CCCCCCC(O)CCCc1ccc(O)c(O)c1 (centres unmarked) [Example 15, 1-(3,4-dihydroxyphenyl)-4-decanol] | 18.4% | 46.2% | –
– | – | – | OCCCCCCCCCc1ccc(O)c(O)c1 [Example 25A, 9-(3,4-Dihydroxyphenyl)-1-nonanol] | -8.3% | 43.9% | –
– | – | – | CCCCCC(C)C(=O)C=Cc1ccc(O)c(O)c1 (centres unmarked) [Example 29, 1-(3,4-dihydroxyphenyl)-4-methyl-1-nonen-3-one] | -32.4% | 38.2% | –
6.52 | En- hanced | – | CCCCC(C)C(O)CCc1ccc(O)c(O)c1 (centres unmarked) [Example 1, 1-(3,4-dihydroxyphenyl)-4-methyl-3-octanol] | 37.8% | 76.6% | –
– | – | – | O=C(O)c1cc(=O)c2c(OCC(O)COc3cccc4oc(C(=O)O)cc(=O)c34)cccc2o1 [DSCG, disodium cromoglycate, reference compound] | 75.2% | 46.6% | inhibited the histamine release in a relatively selective manner
– | – | – | CCCCCCCCCC(=O)Cc1ccc(O)c(O)c1 [Example 14, 1-(3,4-dihydroxyphenyl)-2-undecanone] | 32.7% | 58.9% | –
7.00 | – | < 5.00 | CCCCCCCCC(O)CCc1ccc(O)c(O)c1 (centres unmarked) [Example 9, 1-(3,4-Dihydroxyphenyl)-3-undecanol] | 21.6% | 53.6% | –
6.64 | – | – | CC(=O)CCCCCCCc1ccc(O)c(O)c1 [Example 20, 9-(3,4-dihydroxyphenyl)-2-nonanone] | 17.9% | 62.8% | –
7.27 | – | < 5.00 | OCCCCCCCCCCCc1ccc(O)c(O)c1 [Example 23, 11-(3,4-dihydroxyphenyl)-1-undecanol] | 10.7% | 69.6% | –
– | – | – | CCCCCCC(=O)CCc1ccc(O)c(O)c1 [Example 3, 1-(3,4-dihydroxyphenyl)-3-nonanone] | 22.6% | 53.9% | –
– | – | – | CCCCCC(C)C(O)CCc1ccc(O)c(O)c1 (centres unmarked) [Example 11, 1-(3,4-Dihydroxyphenyl)-4-methyl-3-nonanol] | 17.6% | 66.6% | –
